Test results as given in US20100227931A1, “ANTIFUNGAL COMPOSITION” (Kao Corporation, priority 2007, published 2010).

Experiment: Measurement of calcium-chelating constant (Ca2+ ion electrode, pH 10 buffer)
Format: physicochemical
Conditions: 0.1 mol/L NH4Cl-NH4OH buffer pH 10; 1:1 chelate complex assumed
Experimental: As used herein, the “calcium-chelating constant” refers a value determined by the following method. A solution of 0.1 mol/L NH4Cl-NH4OH (pH 10) is prepared as a buffer. The buffer is used for preparing all sample solutions. To measure a concentration of Ca^2+, an ion meter, Orion […], and a Ca^2+ ion electrode are used. First, a relationship between calcium chloride concentration and potential of the electrode is determined to generate a calibration curve. […] A concentration of remaining Ca^2+ is measured using the Ca^2+ ion electrode. […] [formula] [M]total: initial Ca^2+ concentration [L]total: initial chelating agent concentration [M]: remaining Ca^2+ concentration

SMILES | calcium-chelating constant
O=C(O)CN(CCN(CC(=O)O)CC(=O)O)CC(=O)O [EDTA, ethylenediaminetetraacetic acid] | 12
O=C(O)CC(O)(CC(=O)O)C(=O)O [citric acid] | 3
